In ChEMBL document CHEMBL1146336, “The dicationic derivatives of DBTAA: Interactions with DNA/RNA and antiproliferative effects on human cell lines” (Bioorg Med Chem, 2007):

Tests used:
HEp-2 = assay: Antiproliferative activity against human Hep2 cells after 72 hrs by MTT assay; type: functional, cell-based; conditions: HEp-2, 72 h
HeLa = assay: Antiproliferative activity against human HeLa cells after 72 hrs by MTT assay; type: functional, cell-based
MIA PaCa-2 [1] = assay: Antiproliferative activity against human MiaPaCa2 cells after 72 hrs by MTT assay a; type: functional, cell-based; conditions: MIA PaCa-2, 72 h
SW-620 = assay: Antiproliferative activity against human SW620 cells after 72 hrs by MTT assay; type: functional, cell-based; conditions: SW-620, 72 h
MCF7 = assay: Antiproliferative activity against human MCF7 cells after 72 hrs by MTT assay; type: functional, cell-based; conditions: MCF7, 72 h
[2] = Antiproliferative activity against human WI38 cells after 72 hrs by MTT assay; type: cell-based; conditions: WI-38, 72 h
[3] = Binding affinity to poly G-poly C 0.05 mol/dm^3 by UV/vis titration
MIA PaCa-2 [4] = assay: Effect on cell cycle in human MiaPaCa2 cells assessed as accumulation at sub-G1 phase at 5 uM after 24 hrs by […]; type: functional
[5] = Binding affinity to poly dA-poly dT 0.05 mol/dm^3 by UV/vis titration
[6] = Binding affinity to poly A-poly U 0.05 mol/dm^3 by UV/vis titration
MIA PaCa-2 [7] = assay: Effect on cell cycle in human MiaPaCa2 cells assessed as accumulation at G1/G0 phase at 5 uM after 24 hrs by […]; type: functional
MIA PaCa-2 [8] = assay: Effect on cell cycle in human MiaPaCa2 cells assessed as accumulation at S phase at 5 uM after 24 hrs by […]; type: functional
MIA PaCa-2 [9] = assay: Effect on cell cycle in human MiaPaCa2 cells assessed as accumulation at G2/M phase at 5 uM after 24 hrs by […]; type: functional
MIA PaCa-2 [10] = assay: Effect on cell cycle in human MiaPaCa2 cells assessed as accumulation at sub-G1 phase at 5 uM after 48 hrs by Annexin-V assay; type: functional
MIA PaCa-2 [11] = assay: Effect on cell cycle in human MiaPaCa2 cells assessed as accumulation at G1/G0 phase at 5 uM after 48 hrs by […]; type: functional
MIA PaCa-2 [12] = assay: Effect on cell cycle in human MiaPaCa2 cells assessed as accumulation at S phase at 5 uM after 48 hrs by […]; type: functional
MIA PaCa-2 [13] = assay: Effect on cell cycle in human MiaPaCa2 cells assessed as accumulation at G2/M phase at 5 uM after 48 hrs by […]; type: functional
MIA PaCa-2 [14] = assay: Effect on cell cycle in human MiaPaCa2 cells assessed as accumulation at sub-G1 phase at 5 uM after 72 hrs by Annexin-V assay; type: functional
MIA PaCa-2 [15] = assay: Effect on cell cycle in human MiaPaCa2 cells assessed as accumulation at G1/G0 phase at 5 uM after 72 hrs by […]; type: functional
MIA PaCa-2 [16] = assay: Effect on cell cycle in human MiaPaCa2 cells assessed as accumulation at S phase at 5 uM after 72 hrs by […]; type: functional
MIA PaCa-2 [17] = assay: Effect on cell cycle in human MiaPaCa2 cells assessed as accumulation at G2/M phase at 5 uM after 72 hrs by […]; type: functional
[18] = Binding affinity to poly dA-poly dT 0.15 mol/dm^3 by UV/vis titration
[19] = Binding affinity to poly A-poly U 0.15 mol/dm^3 by UV/vis titration

Question: Which IC50 (HEp-2) does the source give for `C1=C(CCC[n+]2ccc(-c3ccncc3)cc2)\C=N\c2ccccc2N/C=C(CCC[n+]2ccc(-c3ccncc3)cc2)\C=N\c2ccccc2N/1` here?
Answer: > 100 µM

Question: And the IC50 (HeLa)?
Answer: > 100 µM

Question: And the IC50 (MIA PaCa-2 [1])?
Answer: > 100 µM

Question: What about the IC50 (SW-620) of the same molecule?
Answer: > 50 µM

Question: What about the IC50 (MCF7) of the same molecule?
Answer: ≥ 100 µM

Question: What about the IC50 [2] of the same molecule?
Answer: > 100 µM

Question: For `C[n+]1ccc(CCC(=O)OCCCC2=C/Nc3ccccc3/N=C/C(CCCOC(=O)CCc3cc[n+](C)cc3)=C\Nc3ccccc3\N=C\2)cc1.[Br-].[Br-]`, which log Ks [3] is on record?
Answer: 6.1

Question: And the IC50 (HEp-2)?
Answer: 38 µM

Question: What about the IC50 (HeLa) of the same molecule?
Answer: 13.5 µM

Question: What about the IC50 (MIA PaCa-2 [1]) of the same molecule?
Answer: 2.6 µM

Question: What about the IC50 (SW-620) of the same molecule?
Answer: 4 µM

Question: What about the IC50 (MCF7) of the same molecule?
Answer: 2.6 µM

Question: What about the IC50 [2] of the same molecule?
Answer: 4 µM

Question: What about the Activity (MIA PaCa-2 [4]) of the same molecule?
Answer: 5.3%

Question: And the log Ks [5]?
Answer: 5.3

Question: And the log Ks [6]?
Answer: 5.9

Question: What about the Activity (MIA PaCa-2 [7]) of the same molecule?
Answer: 62.32%

Question: And the Activity (MIA PaCa-2 [8])?
Answer: 16.29%

Question: What about the Activity (MIA PaCa-2 [9]) of the same molecule?
Answer: 21.76%

Question: And the Activity (MIA PaCa-2 [10])?
Answer: 10%

Question: And the Activity (MIA PaCa-2 [11])?
Answer: 79.3%

Question: And the Activity (MIA PaCa-2 [12])?
Answer: 9.7%

Question: What about the Activity (MIA PaCa-2 [13]) of the same molecule?
Answer: 10.98%

Question: And the Activity (MIA PaCa-2 [14])?
Answer: 20%

Question: What about the Activity (MIA PaCa-2 [15]) of the same molecule?
Answer: 84.02%

Question: And the Activity (MIA PaCa-2 [16])?
Answer: 5.39%

Question: What about the Activity (MIA PaCa-2 [17]) of the same molecule?
Answer: 10.5%

Question: What does the source list for `C1=C(CCC[n+]2ccccc2)\C=N\c2ccccc2N/C=C(CCC[n+]2ccccc2)\C=N\c2ccccc2N/1.[Br-].[Br-]`?
Answer: log Ks [3]: 4.2; IC50 (HEp-2): 11 µM; IC50 (HeLa): 2 µM; IC50 (MIA PaCa-2 [1]): 1.2 µM; IC50 (SW-620): 18.5 µM; IC50 (MCF7): 6 µM; IC50 [2]: 10 µM; Activity (MIA PaCa-2 [4]): 9.2%; log Ks [5]: 6.1; log Ks [6]: 5.19; Activity (MIA PaCa-2 [7]): 47.56%; Activity (MIA PaCa-2 [8]): 28.4%; Activity (MIA PaCa-2 [9]): 24.054%; Activity (MIA PaCa-2 [10]): 11%; Activity (MIA PaCa-2 [11]): 65.59%; Activity (MIA PaCa-2 [12]): 17.538%; Activity (MIA PaCa-2 [13]): 16.38%; Activity (MIA PaCa-2 [14]): 40%; Activity (MIA PaCa-2 [15]): 58.34%; Activity (MIA PaCa-2 [16]): 31.03%; Activity (MIA PaCa-2 [17]): 10.7%; log Ks [18]: 4.77; log Ks [19]: 5.4
